Assay results as given in the NIST ThermoML archive (doi:10.1021/je200030k).

Columns and labels:
[1] = xn = mol fraction of the nth substance listed; conditions: 101 kPa, Liquid, Vibrating tube method
[2] = refractive index (Na D-line) (dimensionless); xn = mol fraction of the nth substance listed; conditions: 101 kPa, Liquid, Standard Abbe refractometry

CCCCn1cc[n+](C)c1.NCC(=O)[O-] [1-butyl-3-methylimidazolium glycinate] + CC(C)O
Conditions	mass density, [1] [kg/m3]	refractive index, [2]
298.15 K, x1 = 0.0965	877.6	1.405
298.15 K, x1 = 0.1992	957.8	1.43
298.15 K, x1 = 0.3059	1024.4	1.451
298.15 K, x1 = 0.3977	1071.9	1.466
298.15 K, x1 = 0.5115	1121.6	1.48
298.15 K, x1 = 0.5868	1149.9	1.488
298.15 K, x1 = 0.7052	1188.4	1.499
298.15 K, x1 = 0.8117	1217.5	1.509
298.15 K, x1 = 0.8775	–	1.514
303.15 K, x1 = 0.0965	870.7	1.404
303.15 K, x1 = 0.1992	951.4	1.429
303.15 K, x1 = 0.3059	1018.6	1.45
303.15 K, x1 = 0.3977	1066.5	1.464
303.15 K, x1 = 0.5115	1116.8	1.478
303.15 K, x1 = 0.5868	1145.4	1.487
303.15 K, x1 = 0.7052	1184.3	1.499
303.15 K, x1 = 0.8117	1213.9	1.508
303.15 K, x1 = 0.8775	–	1.513
308.15 K, x1 = 0.0965	863	1.403
308.15 K, x1 = 0.1992	944.2	1.429
308.15 K, x1 = 0.3059	1012	1.449
308.15 K, x1 = 0.3977	1060.6	1.463
308.15 K, x1 = 0.5115	1111.4	1.477
308.15 K, x1 = 0.5868	1140.5	1.486
308.15 K, x1 = 0.7052	1180	1.497
308.15 K, x1 = 0.8117	1210	1.505
308.15 K, x1 = 0.8775	1226.4	1.51
313.15 K, x1 = 0.0965	854.7	1.402
313.15 K, x1 = 0.1992	936.6	1.427
313.15 K, x1 = 0.3059	1005	1.449
313.15 K, x1 = 0.3977	1054.1	1.462
313.15 K, x1 = 0.5115	1105.8	1.477
313.15 K, x1 = 0.5868	1135.3	1.485
313.15 K, x1 = 0.7052	1175.4	1.497
313.15 K, x1 = 0.8117	1205.9	1.506
313.15 K, x1 = 0.8775	–	1.511
